Data as given in the NIST ThermoML archive (doi:10.1021/je040006u).

Test: xn = mol fraction of the nth substance listed
Settings: 101.3 kPa, Liquid, Pycnometric method

CCCNCCC [dipropylamine] + COCCO
mass density [kg/m3]
Settings | 291.15 K | 293.15 K | 298.15 K | 303.15 K | 308.15 K
x2 = 0 | 738.47 | 737.2 | 732.56 | 728.2 | 723.64
x2 = 0.0501 | 746.83 | 745.26 | 740.37 | 735.86 | 731.07
x2 = 0.1 | 754.98 | 753.42 | 748.52 | 743.91 | 739.04
x2 = 0.1502 | 763.4 | 761.9 | 756.9 | 752.27 | 747.36
x2 = 0.2001 | 772.06 | 770.51 | 765.5 | 760.85 | 755.94
x2 = 0.2508 | 781.14 | 779.61 | 774.59 | 769.92 | 764.98
x2 = 0.2999 | 790.26 | 788.66 | 783.68 | 778.97 | 774.07
x2 = 0.3502 | 799.92 | 798.35 | 793.28 | 788.57 | 783.65
x2 = 0.4 | 809.92 | 808.21 | 803.2 | 798.45 | 793.51
x2 = 0.45 | 820.34 | 818.67 | 813.61 | 808.82 | 803.85
x2 = 0.4999 | 831.06 | 829.4 | 824.3 | 819.53 | 814.5
x2 = 0.5507 | 842.47 | 840.75 | 835.6 | 830.8 | 825.78
x2 = 0.5982 | 853.45 | 851.69 | 846.6 | 841.77 | 836.69
x2 = 0.6502 | 866.02 | 864.26 | 859.11 | 854.24 | 849.17
x2 = 0.6999 | 878.41 | 876.59 | 871.47 | 866.58 | 861.5
x2 = 0.7489 | 891.21 | 889.34 | 884.21 | 879.3 | 874.18
x2 = 0.8015 | 905.66 | 903.7 | 898.54 | 893.64 | 888.51
x2 = 0.8496 | 919.22 | 917.32 | 912.15 | 907.23 | 902.13
x2 = 0.8997 | 934.42 | 932.35 | 927.21 | 922.3 | 917.11
x2 = 0.9497 | 950.19 | 948.22 | 943.1 | 938.3 | 933.24
